This passage reports TGI and GI50 results from PubChem BioAssay (NCI).

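96-well plates; 48 h exposure; 5 concentrations. Endpoints by linear interpolation between flanking doses. Not reached: highest tested concentration assigned. At the GI50, growth is halved. TGI: total growth inhibition.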

Assay in all cases: NCI tumour cell line growth inhibition, 48 h
The test system of assay [1] is SF-268 CNS.
Assay [2] relates to SR leukemia.
The test system of assay [3] is ACHN renal.
Assay [4] deals with SK-MEL-28 melanoma.
For assay [5], the system named is MDA-MB-435.
Assay [6] concerns NCI-H226 lung.
The test system of assay [7] is COLO 205 colon.
The subject of assay [8] is CAKI-1 renal.
In assay [9] the test system is UACC-257 melanoma.
The subject of assay [10] is OVCAR-3 ovarian.
Assay [11] relates to SK-MEL-2 melanoma.
Assay [12] relates to IGROV1 ovarian.
For assay [13], the system named is MCF7 breast.
The test system of assay [14] is SNB-75 CNS.
For assay [15], the system named is UO-31 renal.
The subject of assay [16] is PC-3 prostate.
Assay [17] relates to SW-620 colon.
Assay [18] has as its system NCI-H460 lung.

For the compound `CN(C)C=Nc1cccc2cnccc12`, the TGI in [1], in assay [2], in [3], in assay [4], in assay [5] and in assay [6] was over 100 µM each time. Also, the TGI in [7], in assay [8], in assay [9], in assay [10], in assay [11] and in assay [12] was over 100 µM in each case. In addition, the TGI in assay [13], in [14], in assay [15] and in assay [16] was over 100 µM each time.
Turning to `N#CC1CCN2N=C(c3ccccc3)SC12c1ccccc1` (stereo not drawn), the TGI in [17], in assay [1], in [2], in assay [3], in [4] and in [5] was over 100 µM throughout. The TGI in assay [6], in [7], in assay [8], in assay [9], in assay [11] and in assay [12] was over 100 µM in each case. Also, the TGI in assay [13], in assay [18], in [14], in assay [15] and in assay [16] was over 100 µM each time.
`Cc1c(C(=O)O)c2cc3ccccc3cc2c(=O)n1C`: the TGI in [17], in assay [1], in assay [2], in assay [3], in assay [5] and in assay [6] was over 10 µM in each case. The TGI in assay [9], in assay [10], in assay [11], in assay [12], in assay [13] and in [18] was over 10 µM in each case. Also, the TGI in assay [14], in [15] and in assay [16] was over 10 µM each time.
`Cc1ccc(CS(=O)(=O)C/N=c2\sc3ccccc3nc2/C=C(\O)c2ccc(Cl)cc2)cc1`: the TGI in assay [17], in assay [1], in assay [2], in [3], in [4] and in assay [5] was over 10 µM throughout. The TGI in assay [7], in assay [8], in assay [9], in assay [10], in [12] and in assay [13] was over 10 µM in each case. For the same compound, the TGI in assay [14] and in assay [16] was over 10 µM each time.
`CCOC(=O)c1cc(C2CCN(Cc3ccccc3)C2=O)c(C(=O)C(=[N+]=[N-])C(C)=O)[nH]1` (stereo not drawn): the TGI in [17], in assay [1], in assay [2], in assay [4], in assay [5] and in assay [6] was over 100 µM throughout. The TGI in assay [7], in assay [8], in assay [9], in assay [10], in assay [11] and in assay [12] was over 100 µM throughout. Besides, the TGI in assay [13], in assay [18], in [14], in assay [15] and in assay [16] was over 100 µM in each case.
For the compound `Cc1cc2c(cc1C)[n+](=O)c(C(=O)N1CCN(c3ccc([N+](=O)[O-])cc3)CC1)c(C)n2[O-]`, the TGI in assay [17] was over 100 µM; in [1], 57.1 µM; in [2], over 100 µM; in assay [3] it was 12.7 µM; in [4], over 100 µM; in assay [5] it was over 100 µM. For the same compound, the TGI in assay [7] is over 100 µM; in assay [8], over 100 µM; in assay [9], over 100 µM; in assay [10] it was over 100 µM; in [11], over 100 µM; in [12], 87.7 µM. Also, the TGI in assay [13], in [18], in assay [15] and in [16] was over 100 µM in each case.
Turning to `CC1C/C(=N\N(C)C)C(C#N)(C#N)C1(C#N)C#N` (stereo not drawn), the TGI is over 100 µM in assay [17]; 24.8 µM in assay [1]; 17.2 µM in [2]; 23.1 µM in assay [3]; over 78.6 µM in assay [4]; 37.4 µM in [5]. For the same compound, the TGI is over 65.9 µM in [6]; 5.67 µM in assay [7]; 3.38 µM in [8]; 28 µM in assay [9]; 33.9 µM in [10]; 48.8 µM in [11]. The TGI in [12] came out at 38.8 µM; in [13] it was 83.8 µM; in assay [14] it was 27 µM; in [15], 30.3 µM; in assay [16] it was 47.2 µM.
Regarding `Cc1nc2ccccc2c(=O)n1NC(=O)c1ccccc1O`, the TGI in [17], in assay [1], in assay [2], in [3], in assay [4] and in [5] was over 100 µM in each case. Also, the TGI in assay [6], in assay [7], in assay [9], in assay [10], in assay [12] and in [13] was over 100 µM throughout. The TGI in assay [18], in assay [14], in [15] and in [16] was over 100 µM in each case.
With `CCCCNC(=O)Nc1c(C(N)=O)c2n(c1C(=O)OCC)CCCCC2`, the TGI in [17], in assay [1], in assay [2], in [3], in [4] and in assay [5] was over 100 µM throughout. Also, the TGI in [6], in assay [7], in assay [8], in assay [9], in assay [11] and in assay [12] was over 100 µM each time. In addition, the TGI in assay [13], in [18], in [14], in assay [15] and in assay [16] was over 100 µM each time.
`CC1(C)CN=C(Nc2ccc(Cl)cc2)S1`: the TGI in assay [17], in [1], in [2], in [3], in assay [4] and in assay [5] was over 100 µM in each case. Further, the TGI in [6], in assay [7], in [8], in assay [9], in [10] and in [11] was over 100 µM in each case. The TGI in assay [12], in assay [13], in assay [14], in assay [15] and in assay [16] was over 100 µM each time.
As for `CCOC(=O)c1cc2c([nH]1)C(=O)CC1=C2CCN1Cc1ccccc1`, the TGI in assay [17] was found to be 23.3 µM; in [1], 43.6 µM; in assay [2], 33.4 µM; in [3], 25.6 µM; in assay [4] it was 32.7 µM; in assay [5], 27.6 µM. In addition, the TGI in assay [6] was determined as 32.3 µM; in [7], 31.8 µM; in [8], 15 µM; in assay [9] it was 36.1 µM; in assay [11] it was 42.5 µM; in assay [12], 36 µM. The TGI turned out to be 32.3 µM in [13]; 39.2 µM in assay [18]; 46.2 µM in [14]; 29.5 µM in assay [15]; 47.2 µM in [16].
For `CC(=O)Nc1cc2c(cc1O)CC[C@@H]1[C@@H]2CC[C@]2(C)[C@@H](O)CC[C@@H]12`, the TGI was 71.9 µM in assay [17]; 68.8 µM in assay [1]; over 100 µM in [2]; over 100 µM in [3]; over 100 µM in [4]; 50.8 µM in assay [5]. Also, the TGI in assay [6] was over 100 µM; in [7], 62.2 µM; in assay [8] it was over 100 µM; in assay [9], over 100 µM; in assay [10], over 100 µM; in assay [12] it was over 100 µM. Further, the TGI in assay [13] is over 100 µM; in assay [18] it was over 100 µM; in [15], 97.9 µM; in [16] it was over 100 µM. In assay [10], the GI50 is 9.2 µM.
Turning to `C#CCOC(=O)C(N)CSSCC(N)C(=O)O` (stereo not drawn), the TGI in assay [17], in assay [1], in assay [2], in [3], in assay [4] and in assay [5] was over 100 µM in each case. Besides, the TGI in [6], in assay [7], in [8], in assay [9], in assay [11] and in [12] was over 100 µM in each case. The TGI in [13], in [18], in assay [14], in [15] and in assay [16] was over 100 µM each time.
With `CC(C)CC(=O)NC(NC(C)C)(C(F)(F)F)C(F)(F)F`, the TGI in assay [17], in assay [1], in [2], in assay [3], in [4] and in assay [5] was over 100 µM each time. In addition, the TGI in [6], in [7], in [8], in assay [9], in [11] and in assay [12] was over 100 µM each time. Also, the TGI in [13], in [18], in assay [14], in assay [15] and in [16] was over 100 µM throughout.
`COc1cc(C(N)=O)cc(NC(=O)/C=C/c2ccccc2)c1OC`: the TGI in [17], in assay [1], in [2], in assay [3], in [4] and in [5] was over 100 µM in each case. Also, the TGI in [7], in [8], in assay [9], in [10], in assay [11] and in [12] was over 100 µM each time. The TGI in assay [13] is over 100 µM; in [18], over 100 µM; in assay [14], 93.1 µM; in [15], over 100 µM; in assay [16], over 100 µM.
Regarding `COc1ccc(N2C(=O)/C(=C\c3cccc(Oc4ccccc4)c3)S(=O)(=O)C2c2ccccc2)cc1` (stereo not drawn), the TGI in assay [17] is over 100 µM; in assay [2] it was 59.3 µM; in [3] it was over 100 µM; in assay [4], over 100 µM; in [5] it was over 100 µM; in assay [6], over 100 µM. Besides, the TGI in [7], in [8], in assay [9], in [10], in [11] and in assay [13] was over 100 µM each time. Also, the TGI in [18], in [15] and in assay [16] was over 100 µM throughout.
Turning to `CC(=O)OCC12C(OC(C)=O)C[C@@H](C)C3(CC(c4ccoc4)OC3=O)C1CCC(O)C21CO1` (stereo partly drawn), the TGI in assay [1], in assay [2], in assay [3], in [4], in assay [5] and in assay [6] was over 100 µM in each case. Moreover, the TGI in assay [7], in assay [8], in assay [9], in assay [10], in assay [11] and in assay [12] was over 100 µM throughout. In addition, the TGI in assay [13], in assay [14], in assay [15] and in assay [16] was over 100 µM in each case.
